Experimental data taken from the CheMixHub viscosity set.

Test: xn = mol fraction of the nth substance listed

C=C1CCC2CC1C2(C)C (configuration not stated) + COC(C)(C)C
298.15 K, 101.33 kPa
Settings | viscosity [mPa·s]
x2 = 0.0493 | 1.485
x2 = 0.1076 | 1.364
x2 = 0.2248 | 1.142
x2 = 0.354 | 0.93
x2 = 0.439 | 0.8092
x2 = 0.5239 | 0.7038
x2 = 0.6457 | 0.5826
x2 = 0.7594 | 0.4855
x2 = 0.8663 | 0.41
x2 = 0.9007 | 0.3873
x2 = 0.9651 | 0.3495

Fc1c(F)c(F)c(F)c(F)c1F + CS(C)=O
viscosity [mPa·s], 101 kPa
Settings | x2 = 0.1003 | x2 = 0.2029 | x2 = 0.2999 | x2 = 0.4 | x2 = 0.5001 | x2 = 0.5999 | x2 = 0.7 | x2 = 0.8004 | x2 = 0.9
293.15 K | 0.991 | 1.058 | 1.143 | 1.246 | 1.365 | 1.509 | 1.661 | 1.806 | 1.974
303.15 K | 0.833 | 0.891 | 0.961 | 1.05 | 1.144 | 1.267 | 1.386 | 1.513 | 1.641
313.15 K | 0.703 | 0.758 | 0.822 | 0.904 | 0.976 | 1.071 | 1.171 | 1.276 | 1.385
323.15 K | 0.62 | 0.659 | 0.713 | 0.775 | 0.839 | 0.918 | 0.993 | 1.077 | 1.167

OC[C@H]1O[C@@](CO)(O[C@H]2O[C@H](CO)[C@@H](O)[C@H](O)[C@H]2O)[C@@H](O)[C@@H]1O + CS(C)=O
viscosity [mPa·s], 101 kPa
Settings | 298.15 K | 308.15 K | 318.15 K
x1 = 0.006451 | 2.4 | 1.962 | 1.63
x1 = 0.01289 | 2.883 | 2.319 | 1.908
x1 = 0.01959 | 3.523 | 2.793 | 2.266
x1 = 0.0336 | 5.532 | 4.214 | 3.309
x1 = 0.04801 | 9.087 | 6.615 | 4.999
x1 = 0.05582 | 12.08 | 8.541 | 6.292
x1 = 0.06395 | 16.4 | 11.28 | 8.055
x1 = 0.07246 | 22.45 | 14.86 | 10.39
x1 = 0.08036 | 30.82 | 19.69 | 13.36
x1 = 0.09752 | 61.59 | 36.46 | 23.02
x1 = 0.1069 | 90.84 | 51.59 | 31.4
x1 = 0.117 | 139.8 | 75.48 | 43.98
x1 = 0.1263 | 211.4 | 109.3 | 61.19

O=C(O)CC(O)C(=O)O (configuration not stated) + C[C@H](N)C(=O)O
101 kPa, x2 = 0.5
Settings | viscosity [mPa·s]
298.15 K | 475400
318.15 K | 32390

O=C(O)CC(O)C(=O)O (configuration not stated) + C[N+](C)(C)CC(=O)[O-]
Settings | viscosity [mPa·s]
318.15 K, 101 kPa, x2 = 0.5 | 42170

C[C@H](O)C(=O)O + C[N+](C)(C)CCO.[Cl-]
101 kPa, x2 = 0.3333
Settings | viscosity [mPa·s]
303.15 K | 374.3
313.15 K | 187

O=C(O)CC(O)C(=O)O (configuration not stated) + C[N+](C)(C)CCO.[Cl-]
Settings | viscosity [mPa·s]
293.15 K, 101 kPa, x1 = 0.5 | 24490
293.2 K, 101.3 kPa, x2 = 0.602 | 8896
293.2 K, 101.3 kPa, x2 = 0.666 | 3341
298 K, 101.3 kPa, x2 = 0.5 | 2082
298.15 K, 101 kPa, x1 = 0.5 | 22090
298.15 K, 101.33 kPa, x1 = 0.7 | 530.2
303.15 K, 101 kPa, x1 = 0.5 | 13390
303.2 K, 101.3 kPa, x2 = 0.602 | 5432
303.2 K, 101.3 kPa, x2 = 0.666 | 2810
308.15 K, 101 kPa, x1 = 0.5 | 8995
313.15 K, 101 kPa, x1 = 0.5 | 5859
313.2 K, 101.3 kPa, x2 = 0.505 | 6421
313.2 K, 101.3 kPa, x2 = 0.602 | 2827
313.2 K, 101.3 kPa, x2 = 0.666 | 1676
318.15 K, 101 kPa, x1 = 0.5 | 4121
323 K, 101.3 kPa, x2 = 0.5 | 610
323.15 K, 101 kPa, x1 = 0.5 | 2924

Oc1cccc(O)c1O + C[N+](C)(C)CCO.[Cl-]
viscosity [mPa·s], 101.3 kPa
Settings | 293.15 K | 298.15 K | 303.15 K | 308.15 K | 313.15 K | 318.15 K | 323.15 K
x2 = 0.333 | 6400 | 4850 | 3200 | 2000 | 1250 | 800 | 600
x2 = 0.5 | 6100 | 3750 | 2500 | 1500 | 1000 | 750 | 500

C=C1CCC2CC1C2(C)C (configuration not stated) + Cc1cc(C)cc(C)c1
viscosity [mPa·s], 101 kPa
Settings | x2 = 0.2198 | x2 = 0.3257 | x2 = 0.429 | x2 = 0.5299 | x2 = 0.6283 | x2 = 0.7245 | x2 = 0.8185 | x2 = 0.9103
303.15 K | 1.254 | 1.108 | 0.981 | 0.871 | 0.799 | 0.743 | 0.696 | 0.661
308.5 K | 1.167 | 1.032 | 0.915 | 0.819 | 0.749 | 0.695 | 0.653 | 0.622
313.15 K | 1.082 | 0.959 | 0.854 | 0.768 | 0.698 | 0.645 | 0.606 | 0.576

C=C1CCC2CC1C2(C)C (configuration not stated) + Cc1cccc(C)c1
viscosity [mPa·s], 101 kPa
Settings | x2 = 0.2415 | x2 = 0.3531 | x2 = 0.4592 | x2 = 0.5602 | x2 = 0.6564 | x2 = 0.7482 | x2 = 0.8359 | x2 = 0.9198
303.15 K | 1.225 | 1.049 | 0.915 | 0.799 | 0.737 | 0.682 | 0.637 | 0.602
308.5 K | 1.137 | 0.98 | 0.85 | 0.748 | 0.685 | 0.639 | 0.6 | 0.568
313.15 K | 1.05 | 0.91 | 0.787 | 0.697 | 0.637 | 0.593 | 0.563 | 0.542

Fc1c(F)c(F)c(F)c(F)c1F + Cc1cccc(C)n1
viscosity [mPa·s], 101.33 kPa
Settings | x2 = 0.091 | x2 = 0.165 | x2 = 0.229 | x2 = 0.283 | x2 = 0.497 | x2 = 0.5 | x2 = 0.712 | x2 = 0.767 | x2 = 0.832 | x2 = 0.908
293.15 K | – | 0.9415 | 0.9457 | – | – | 0.9333 | 0.8943 | 0.8824 | 0.8673 | 0.8549
298.15 K | – | 0.869 | 0.8709 | 0.8665 | 0.8598 | 0.8584 | 0.8268 | 0.8175 | 0.8052 | 0.7928
308.15 K | – | 0.7494 | 0.7485 | 0.7439 | 0.7372 | 0.736 | 0.7137 | 0.7072 | 0.6997 | 0.6916
318.15 K | 0.6629 | 0.6586 | 0.6562 | – | 0.6401 | 0.6401 | 0.6252 | 0.6209 | 0.616 | 0.611

C1=Cc2cccc3cccc1c23 + Cc1ccccc1
viscosity [mPa·s], 101 kPa
Settings | 303.15 K | 308.15 K | 313.15 K | 318.15 K
x1 = 0.1292 | 0.6888 | 0.6467 | 0.608 | 0.573
x1 = 0.195 | 0.794 | 0.74 | 0.6961 | 0.6516
